Reference: publication PMC12828148, “Engineered cyclic peptide targeting ITGA5 disrupts tumor–stroma interaction to overcome desmoplasia and resistance in pancreatic ductal adenocarcinoma” (Acta Pharmaceutica Sinica. B, 2025)
Peptide text beside a SMILES is read from it.

What was measured:
[1] = test system: hPSCs activated by TGF-β; assay: Gene expression in TGF-β-activated hPSCs (qPCR, RT2 profiler PCR array); format: cell-based, human
Experimental: (§1) Quantitative real-time PCR
To examine the effect of peptides on the gene expression of hPSC activation markers, cells were seeded into a 12 well plate at a seeding density of 50,000 cells/well. After overnight incubation, cells were starved for 24 h, then treated with human recombinant 5 ng/mL TGF-β (Peprotech, […]
After 24 h of the incubation, cells were lysed and total RNA was isolated using GenElute™ Mammalian Total RNA Miniprep Kit (Sigma–Aldrich) and the RNA concentration was measured using a NanoDrop® ND-1000 Spectrophotometer (Thermo Scientific, Waltham, USA). cDNA was synthesized with iScript™ cDNA Synthesis Kit (BioRad, Veenendaal, The Netherlands), and 10 ng cDNA was used for each PCR reaction. The real-time PCR primers (Table S1) were purchased from Sigma–Aldrich. Quantitative real time PCR was performed with 2× SensiMix SYBR and Fluoroscein Kit (Bioline GmbH, Luckenwalde, Germany) using a BioRad CFX384 Real-Time PCR detection system (BioRad). Gene expression levels were normalized to the expression of the house-keeping gene 18s rRNA. […]
(§2) The next day, the medium […]
(§3) was changed with 0% FBS Stellate Cell medium to starve hPSCs for 24 h. Subsequently, hPSCs were incubated with 5 ng/mL TGF-β1 and peptide for 48 h to examine the effect on protein expression of different markers such as α-SMA and collagen-1. Cells were lysed using 1× blue loading buffer containing 1× DTT reducing agent (Cell Signaling Technology) and homogenized using ultrasonication. Protein lysates were separated on a 4%–20% Tris-Glycine gel (Thermo Scientific) and then transferred onto a PVDF membrane (Thermo Scientific). […]

[2] = Peptide stability in human plasma; format: in vitro ADME; conditions: 20 µmol/L peptide, 50% human plasma, 37 °C, 1, 2 and 24 h, TCA precipitation, RP-HPLC UV 280 nm
Experimental: (§4) To evaluate the stability, 20 µmol/L peptide was incubated in 50% human plasma at biological temperature 37 °C for 1, 2, and 24 h. After incubation, plasma was precipitated by adding equal volume of 4% trichloroacetic acid (TCA) and rested on ice for 10 min. As control (or 0h), precipitation was performed immediately after mixing the peptide and plasma. Supernatant was collected after centrifugation at 13,300 × g and assessed using reversed phase high performance liquid chromatography (HPLC) with 5%, 95%, and 99.9% acetonitrile in de-gassed water with 0.1% trifluoroacetic acid as eluents. The remaining peptide was analyzed at a wavelength 280 nm.
Quantitative real-time PCR […]
as §2, §3

[3] = test system: hPSC activated with TGF-β; assay: Inhibition of TGF-β-induced PSC activation (immunocytochemical staining, Western blot); format: cell-based, human; conditions: 5 ng/mL TGF-β, 48 h, peptides at 20 and 50 μmol/L
Experimental: secondary peroxidase labeled antibody was added and incubated for 1 h at RT. The HRP signal was developed using standard chemiluminescence kit and the signal was measured.
as §4, §1
To examine the effect of peptides on the gene expression of hPSC activation markers, cells were seeded into a 12 well plate at a seeding density of 50,000 cells/well. After overnight incubation, cells were starved for 24 h, then treated with human recombinant 5 ng/mL TGF-β (Peprotech, Hamburg, Germany) and […] peptide. After 24 h of the incubation, cells were lysed and total RNA was isolated using GenElute™ Mammalian Total RNA Miniprep Kit (Sigma–Aldrich) and the RNA concentration was measured using a NanoDrop® ND-1000 Spectrophotometer (Thermo Scientific, Waltham, USA). cDNA was synthesized with iScript™ cDNA Synthesis Kit (BioRad, Veenendaal, The Netherlands), and 10 ng cDNA was used for each PCR reaction. […] Quantitative real time PCR was performed with 2× SensiMix SYBR and Fluoroscein Kit (Bioline GmbH, Luckenwalde, Germany) using a BioRad CFX384 Real-Time PCR detection system (BioRad). […]
To evaluate the effect of peptides on the protein expression of hPSC activation markers, hPSCs were seeded into a 12 well plate at seeding density 50,000 cells/well. […] Proteins were detected with […]
medium. […] Images were analyzed using […]
secondary fluorescence-labeled antibody diluted in PBS. […]

Compound: C[C@@H]1NC(=O)[C@H](CCCNC(=N)N)NC(=O)[C@H](Cc2ccc(O)cc2)NC(=O)[C@H](Cc2ccc(O)cc2)NC(=O)[C@H](CCCNC(=N)N)NC(=O)CNC(=O)[C@H](CCCCN)NC(=O)[C@H](Cc2ccc(O)cc2)NC(=O)[C@H]([C@@H](C)O)NC1=O [cyAV3.3] (cyclo(ATYKGRYYR))
- gene expression of FN and ITGA5 ([1]; hPSCs activated by TGF-β, cyAV3.3 50 μmol/L, 24 h, qPCR): significantly inhibited the gene expression of FN and ITGA5
- expression of 38 ECM and adhesion genes upregulated by TGF-β (heatmap) ([1]; hPSCs activated by TGF-β, cyAV3.3 50 μmol/L, RT2 Profiler PCR array): downregulated all the upregulated genes
- TGF-β-induced gene expression of ACTA2 and COL-1A1 ([1]; hPSCs, 5 ng/mL TGF-β, 24 h, qPCR): inhibited both ACTA2 and COL-1A1 concentration dependently
- stability of the peptides in human plasma [2]: significant improvement in the stability
- inhibition of downstream signaling p-FAK ([3]; Western blot): more inhibition
- inhibition of PSC activation by TGF-β1 (expression of α-SMA and collagen-1) ([3]; immunostaining and Western blot): much stronger than AV3.3
